For 6 cell lines, relative viability results are on record in the supplement of paper PMC10307832.

Holding throughout (assay): relative viability (nuclei count vs DMSO), 5 days (fraction); higher = more cells survive
Compound in the experiment “ALW-II-49-7 + Crizotinib”: Cc1ccc(C(=O)Nc2cccc(C(F)(F)F)c2)cc1Nc1cncc(C(N)=O)c1 [ALW-II-49-7] + C[C@@H](Oc1cc(-c2cnn(C3CCNCC3)c2)cnc1N)c1c(Cl)ccc(F)c1Cl [Crizotinib] (partner 1 µM)
The method, boiled down: (§1)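 Values are medians from duplicate plates. Each reflects relative viability, defined as the nuclei count of treated wells over that of vehicle wells. Lung cancer cell lines in 1536-well plates were pin-tool dosed one day after seeding with one drug alone or with a fixed anchor-drug dose plus five library-drug doses (not always all listed) in √10 steps, then fixed, stained and imaged at 4× after 5 days.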

Compound in the experiment “XMD13-2 + Luminespib”: C1CC1C(=O)NC2=NNC3=C2C=CC(=C3)C4=CC(=CC=C4)C(=O)NC5CC5 [XMD13-2] + CCNC(=O)c1noc(-c2cc(C(C)C)c(O)cc2O)c1-c1ccc(CN2CCOCC2)cc1 [Luminespib] (partner 0.01 µM)
In outline: as §1

Compound in the experiment “ALW-II-49-7 + Foretinib”: Cc1ccc(C(=O)Nc2cccc(C(F)(F)F)c2)cc1Nc1cncc(C(N)=O)c1 [ALW-II-49-7] + COc1cc2c(Oc3ccc(NC(=O)C4(C(=O)Nc5ccc(F)cc5)CC4)cc3F)ccnc2cc1OCCCN1CCOCC1 [Foretinib] (partner 0.25 µM)
The method, boiled down:
as §1

On to 201T, for which the relative viability with ALW-II-49-7 + Crizotinib (first compound 0.08 µM) stood at 1.04; with ALW-II-49-7 + Crizotinib (first compound 0.253 µM) it was 1.08; with ALW-II-49-7 + Crizotinib (first compound 0.8 µM), 1.04; in the experiment with ALW-II-49-7 + Crizotinib (first compound 2.53 µM), 1.06; in the experiment with ALW-II-49-7 + Crizotinib (first compound 8 µM), 1.04; with XMD13-2 + Luminespib (first compound 0.05 µM), 1.03. For the same cell line, the relative viability came out at 1.03 with XMD13-2 + Luminespib (first compound 0.1581 µM); 1.11 in the experiment with XMD13-2 + Luminespib (first compound 0.5 µM); 1.01 with XMD13-2 + Luminespib (first compound 1.581 µM); 1.12 in the experiment with XMD13-2 + Luminespib (first compound 5 µM); 1.24 with ALW-II-49-7 + Foretinib (first compound 0.253 µM); 1.01 with ALW-II-49-7 + Foretinib (first compound 0.8 µM). Also, the figures for the relative viability in the experiment with ALW-II-49-7 + Foretinib (first compound 2.53 µM) and with ALW-II-49-7 + Foretinib (first compound 8 µM) were 0.447 and 1.13, respectively.

Turning to A549, the relative viability with ALW-II-49-7 + Crizotinib (first compound 0.08 µM) was 0.753; in the experiment with ALW-II-49-7 + Crizotinib (first compound 0.253 µM), 0.852; with ALW-II-49-7 + Crizotinib (first compound 0.8 µM) it was 0.596; with ALW-II-49-7 + Crizotinib (first compound 2.53 µM), 0.754; with ALW-II-49-7 + Crizotinib (first compound 8 µM), 0.624; with ALW-II-49-7 + Foretinib (first compound 0.08 µM), 0.918. Also, the relative viability with ALW-II-49-7 + Foretinib (first compound 0.253 µM) turned out to be 0.92; with ALW-II-49-7 + Foretinib (first compound 0.8 µM), 0.78; with ALW-II-49-7 + Foretinib (first compound 2.53 µM), 0.961; in the experiment with ALW-II-49-7 + Foretinib (first compound 8 µM) it was 0.824.

A-427: the relative viability in the experiment with ALW-II-49-7 + Crizotinib (first compound 0.08 µM) was 1.01; in the experiment with ALW-II-49-7 + Crizotinib (first compound 0.253 µM) it was 0.816; with ALW-II-49-7 + Crizotinib (first compound 0.8 µM) it was 0.855; in the experiment with ALW-II-49-7 + Crizotinib (first compound 2.53 µM), 0.878; in the experiment with ALW-II-49-7 + Crizotinib (first compound 8 µM), 0.969; with XMD13-2 + Luminespib (first compound 0.05 µM), 1.08. The relative viability in the experiment with XMD13-2 + Luminespib (first compound 0.1581 µM) was determined as 0.846; with XMD13-2 + Luminespib (first compound 0.5 µM), 0.94; with XMD13-2 + Luminespib (first compound 1.581 µM), 0.945; with XMD13-2 + Luminespib (first compound 5 µM) it was 0.849; in the experiment with ALW-II-49-7 + Foretinib (first compound 0.08 µM), 1.16; in the experiment with ALW-II-49-7 + Foretinib (first compound 0.253 µM), 0.95. Further, the figures for the relative viability with ALW-II-49-7 + Foretinib (first compound 0.8 µM), with ALW-II-49-7 + Foretinib (first compound 2.53 µM) and with ALW-II-49-7 + Foretinib (first compound 8 µM) were 1.12, 1.14 and 1.2, respectively.

On to ABC-1, for which the relative viability with ALW-II-49-7 + Crizotinib (first compound 0.08 µM) worked out at 0.978; in the experiment with ALW-II-49-7 + Crizotinib (first compound 0.253 µM) it was 0.92; with ALW-II-49-7 + Crizotinib (first compound 0.8 µM) it was 0.838; in the experiment with ALW-II-49-7 + Crizotinib (first compound 2.53 µM) it was 1.05; with ALW-II-49-7 + Crizotinib (first compound 8 µM) it was 1.03; with XMD13-2 + Luminespib (first compound 0.05 µM) it was 0.477. Besides, the relative viability with XMD13-2 + Luminespib (first compound 0.1581 µM) was determined as 0.919; with XMD13-2 + Luminespib (first compound 0.5 µM), 0.611; in the experiment with XMD13-2 + Luminespib (first compound 1.581 µM), 0.545; with XMD13-2 + Luminespib (first compound 5 µM), 0.325; with ALW-II-49-7 + Foretinib (first compound 0.08 µM) it was 0.959; with ALW-II-49-7 + Foretinib (first compound 0.253 µM), 1.11. Further, the relative viability was found to be 1.14 with ALW-II-49-7 + Foretinib (first compound 0.8 µM), 0.863 with ALW-II-49-7 + Foretinib (first compound 2.53 µM) and 1.42 with ALW-II-49-7 + Foretinib (first compound 8 µM).

Take BEN: the relative viability with ALW-II-49-7 + Crizotinib (first compound 0.08 µM) is 0.722; with ALW-II-49-7 + Crizotinib (first compound 0.253 µM), 0.866; in the experiment with ALW-II-49-7 + Crizotinib (first compound 0.8 µM) it was 0.81; with ALW-II-49-7 + Crizotinib (first compound 8 µM) it was 0.834; in the experiment with XMD13-2 + Luminespib (first compound 0.05 µM) it was 0.53; with XMD13-2 + Luminespib (first compound 0.1581 µM), 0.437. In addition, the relative viability with XMD13-2 + Luminespib (first compound 0.5 µM) came out at 0.384; in the experiment with XMD13-2 + Luminespib (first compound 1.581 µM) it was 0.246; with XMD13-2 + Luminespib (first compound 5 µM) it was 0.289; in the experiment with ALW-II-49-7 + Foretinib (first compound 0.08 µM), 0.829; with ALW-II-49-7 + Foretinib (first compound 0.253 µM), 0.756; in the experiment with ALW-II-49-7 + Foretinib (first compound 0.8 µM) it was 0.768. Moreover, the relative viability stood at 0.752 with ALW-II-49-7 + Foretinib (first compound 2.53 µM) and 0.692 with ALW-II-49-7 + Foretinib (first compound 8 µM).

CAL-12T: the relative viability with ALW-II-49-7 + Crizotinib (first compound 0.08 µM) turned out to be 0.537; in the experiment with ALW-II-49-7 + Crizotinib (first compound 0.253 µM) it was 0.625; in the experiment with ALW-II-49-7 + Crizotinib (first compound 0.8 µM), 0.686; in the experiment with ALW-II-49-7 + Crizotinib (first compound 2.53 µM), 0.62; with ALW-II-49-7 + Crizotinib (first compound 8 µM), 0.385; in the experiment with XMD13-2 + Luminespib (first compound 0.05 µM), 0.373. Also, the relative viability with XMD13-2 + Luminespib (first compound 0.1581 µM) amounted to 0.832; with XMD13-2 + Luminespib (first compound 0.5 µM), 0.933; with XMD13-2 + Luminespib (first compound 1.581 µM), 0.286; with XMD13-2 + Luminespib (first compound 5 µM), 0.75; in the experiment with ALW-II-49-7 + Foretinib (first compound 0.08 µM) it was 1.11; with ALW-II-49-7 + Foretinib (first compound 0.253 µM) it was 1.14. Besides, the values for the relative viability with ALW-II-49-7 + Foretinib (first compound 0.8 µM), with ALW-II-49-7 + Foretinib (first compound 2.53 µM) and in the experiment with ALW-II-49-7 + Foretinib (first compound 8 µM) were 1.19, 1.07 and 0.843, respectively.
